Source: patent US20150080438A1, “6,7-Dihydro-5H-benzo[7]annulene derivatives, processes for their preparation, pharmaceutical products comprising them and their use for preparing medicaments” (Bayer Intellectual Property GmbH, priority 2011, published 2015)

How the values were obtained:
[1] = tested on: uterus growth induced by 17β-estradiol; assay: Anti-uterus growth test in the adult rat; type: in vivo; settings: ovariectomized adult rat, percentage inhibition of uterus growth; for Anti-oestrogenic activity in vivo in % at a dose of 1 mg/kg (rat): 1 mg/kg s.c. d1-d3 with 1.5 μg/kg/day 17β-estradiol; for inhibition in vivo at 0.3 mg/kg: sc, 0.3 mg/kg s.c. d1-d3 with 1.5 μg/kg/day 17β-estradiol, read-out: Anti-oestrogenic activity in vivo in % at a dose of 0.3 mg/kg (rat)
Source text: The uterus of oestrogen-substituted rats can be used as a test model for detecting a direct action of substances with anti-oestrogenic properties. The parameter of oestrogenic action is estradiol-induced uterus growth in rats, which is inhibited by simultaneous administration of a substance with anti-oestrogenic action. The experimental animals (n=5-6 animals/group) were ovariectomized before the start of the test, to rule out the influence of endogenous oestrogens. After a phase of 6 to 10 days, the test substances are administered s.c. on 3 consecutive days (d1-d3) in combination with a substitution dose of 1.5 μg/kg/day of 17β-estradiol. 17β-estradiol alone serves as positive control, and the excipients serve as negative control. On day 4 (d4) the animals are killed, and the uteri and vaginae are removed and weighed. The organ weights are converted to mg/100 g body weight, then the mean value and the standard deviation are calculated for each dosage. The inhibition of uterus or vaginal growth induced by 17β-estradiol is shown as percentage inhibition. The selected claimed substances were investigated in adult female rats as described for their anti-oestrogenic, inhibitory action on the weight of the uterus. At the dosage used, the substances show a marked anti-oestrogenic action in vivo (Table 3 and Table 4).

oestrogen receptor (ER) = biological target: T1, oestrogen receptor (ER) (Homo sapiens, UniProt P03372); assay: Anti-oestrogenic action in MVLN cells (inhibition of estradiol-induced luciferase, transactivation antagonism); type: cell-based; settings: inhibition of estradiol-induced luciferase activity, read-out: Anti-oestrogenic action in vitro: MVLN transactivation antagonism IC50
T1 construct: These MVLN cells express, along with the functional oestrogen receptor (ER), a reporter construct; endogenous in cells; host or cells: MVLN cells (MCF7 derivative with ER-responsive luciferase reporter)
T1 sequence (P03372 1-595): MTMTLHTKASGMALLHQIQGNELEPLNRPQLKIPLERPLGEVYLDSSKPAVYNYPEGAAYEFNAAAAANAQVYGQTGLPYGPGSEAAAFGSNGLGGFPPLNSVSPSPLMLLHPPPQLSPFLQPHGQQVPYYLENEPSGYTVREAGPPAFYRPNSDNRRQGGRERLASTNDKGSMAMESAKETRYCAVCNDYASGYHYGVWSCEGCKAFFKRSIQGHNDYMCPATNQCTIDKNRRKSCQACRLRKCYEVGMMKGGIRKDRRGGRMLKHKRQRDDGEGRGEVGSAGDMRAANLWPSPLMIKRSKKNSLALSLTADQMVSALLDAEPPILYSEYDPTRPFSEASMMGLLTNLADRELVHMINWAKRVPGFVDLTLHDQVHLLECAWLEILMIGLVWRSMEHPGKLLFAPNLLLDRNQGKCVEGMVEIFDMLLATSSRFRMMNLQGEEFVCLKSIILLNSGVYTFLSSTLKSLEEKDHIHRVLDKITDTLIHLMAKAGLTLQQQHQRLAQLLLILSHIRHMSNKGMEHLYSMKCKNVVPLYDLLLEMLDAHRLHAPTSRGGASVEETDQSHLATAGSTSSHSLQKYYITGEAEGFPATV
Method in brief: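 MCF7-derived MVLN cells carrying an ER-driven luciferase reporter; test compounds applied with estradiol, and anti-oestrogenic action scored as inhibition of the estradiol-induced luciferase signal.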

Row | SMILES | IC50 (oestrogen receptor (ER)) [nM] | Anti-oestrogenic activity in vivo in % at a dose of 1 mg/kg (rat) [1] [%] | inhibition in vivo at 0.3 mg/kg [1] [%]
1 | CN(CCCCCC1=C(c2cccc(O)c2)CCCc2cc(O)ccc21)CCCC[S+]([O-])CCCC(F)(F)C(F)(F)F (racemic) [Example 6, 8-(3-Hydroxyphenyl)-9-[5-(methyl{4-[(RS)-(4,4,5,5,5-pentafluoropentyl)sulphinyl]butyl}amino)pentyl]-6,7-dihydro-5H-benzo[7]annulen-3-ol] | 4 | 64 | 22
2 | CN(CCCCCC1=C(c2ccc(O)c(F)c2)CCCc2cc(O)ccc21)CCC[S+]([O-])CCCC(F)(F)C(F)(F)F (racemic) [Example 37, 8-(3-Fluoro-4-hydroxyphenyl)-9-[5-(methyl{3-[(RS)-(4,4,5,5,5-pentafluoropentyl)sulphinyl]propyl}amino)pentyl]-6,7-dihydro-5H-benzo[7]annulen-3-ol] | 1 | – | 59
3 | CN(CCCCCC1=C(c2ccc(S(C)(=O)=O)cc2)CCCc2cc(O)ccc21)CCC[S+]([O-])CCCC(F)(F)C(F)(F)F (racemic) [Example 46, 8-(4-Mesylphenyl)-9-[5-(methyl{3-[(RS)-(4,4,5,5,5-pentafluoropentyl)sulphinyl]propyl}amino)pentyl]-6,7-dihydro-5H-benzo[7]annulen-3-ol] | 14 | 31 | –
4 | CN(CCCCCCC1=C(c2ccccc2)CCCc2cc(O)ccc21)CCC[S+]([O-])CCCC(F)(F)C(F)(F)F (racemic) [Example 64, 9-[6-(Methyl{3-[(RS)-(4,4,5,5,5-pentafluoropentyl)sulphinyl]propyl}amino)hexyl]-8-phenyl-6,7-dihydro-5H-benzo[7]annulen-3-ol] | 5 | – | 85
5 | CN(CCCCCC1=C(c2ccccc2)CCCc2cc(O)ccc21)CCCSCCCC(F)(F)C(F)(F)F [Example 1, 9-[5-(Methyl{3-[(4,4,5,5,5-pentafluoropentyl)sulphanyl]propyl}amino)pentyl]-8-phenyl-6,7-dihydro-5H-benzo[7]annulen-3-ol] | 37 | 65 | –
6 | CN(CCCCCCC1=C(c2ccc(F)c(O)c2)CCCc2cc(O)ccc21)CCCCS(=O)(=O)CCC(F)(F)F [Example 110, 8-(4-Fluoro-3-hydroxyphenyl)-9-[6-(methyl{4-[(3,3,3-trifluoropropyl)sulphonyl]butyl}amino)hexyl]-6,7-dihydro-5H-benzo[7]annulen-3-ol] | 5 | – | –
7 | CN(CCCCCC1=C(c2ccccc2)CCCc2cc(O)ccc21)CCCCS(=O)(=O)CCC(F)(F)F [Example 111, 9-[5-(Methyl{4-[(3,3,3-trifluoropropyl)sulphonyl]butyl}amino)pentyl]-8-phenyl-6,7-dihydro-5H-benzo[7]annulen-3-ol] | 250 | – | –
8 | CN(CCCCCC1=C(c2cccc(O)c2)CCCc2cc(O)ccc21)CCCCS(=O)(=O)CCC(F)(F)F [Example 112, 8-(3-Hydroxyphenyl)-9-[5-(methyl{4-[(3,3,3-trifluoropropyl)sulphonyl]butyl}amino)pentyl]-6,7-dihydro-5H-benzo[7]annulen-3-ol] | 45 | – | –
9 | CN(CCCCCCC1=C(c2cccc(O)c2)CCCc2cc(O)ccc21)CCCCS(=O)(=O)CCC(F)(F)F [Example 113, 8-(3-Hydroxyphenyl)-9-[6-(methyl{4-[(3,3,3-trifluoropropyl)sulphonyl]butyl}amino)hexyl]-6,7-dihydro-5H-benzo[7]annulen-3-ol] | 2 | – | –
10 | CN(CCCCCCC1=C(c2ccc(F)c(O)c2)CCCc2c1ccc(O)c2F)CCCS(=O)(=O)CCCC(F)(F)C(F)(F)F [Example 114, 4-Fluoro-8-(4-fluoro-3-hydroxyphenyl)-9-[6-(methyl{3-[(4,4,5,5,5-pentafluoropentyl)sulphonyl]propyl}amino)hexyl]-6,7-dihydro-5H-benzo[7]annulen-3-ol] | 20 | – | –
11 | CN(CCCCCCC1=C(c2ccc(F)c(O)c2)CCCc2c1ccc(O)c2F)CCCS(=O)(=O)CCC(F)(F)C(F)(F)F [Example 116, 4-Fluoro-8-(4-fluoro-3-hydroxyphenyl)-9-[6-(methyl{3-[(3,3,4,4,4-pentafluorobutyl)sulphonyl]propyl}amino)hexyl]-6,7-dihydro-5H-benzo[7]annulen-3-ol] | 34 | – | –
12 | CN(CCCCCCC1=C(c2ccc(F)c(O)c2)CCCc2c1ccc(O)c2F)CCCCS(=O)(=O)CCCC(F)(F)C(F)(F)F [Example 117, 4-Fluoro-8-(4-fluoro-3-hydroxyphenyl)-9-[6-(methyl{4-[(4,4,5,5,5-pentafluoropentyl)sulphonyl]butyl}amino)hexyl]-6,7-dihydro-5H-benzo[7]annulen-3-ol] | 11 | – | –
13 | CN(CCCCCCC1=C(c2ccc(F)c(O)c2)CCCc2c1ccc(O)c2F)CCCCS(=O)(=O)CCCC(F)(F)F [Example 118, 4-Fluoro-8-(4-fluoro-3-hydroxyphenyl)-9-[6-(methyl{4-[(4,4,4-trifluorobutyl)sulphonyl]butyl}amino)hexyl]-6,7-dihydro-5H-benzo[7]annulen-3-ol] | 9 | – | –
14 | CN(CCCCCCC1=C(c2ccc(F)c(O)c2)CCCc2cc(O)c(F)cc21)CCCS(=O)(=O)CCCC(F)(F)F [Example 127, 2-Fluoro-8-(4-fluoro-3-hydroxyphenyl)-9-[6-(methyl{3-[(4,4,4-trifluorobutyl)sulphonyl]propyl}amino)hexyl]-6,7-dihydro-5H-benzo[7]annulen-3-ol] | 6 | – | –

Continued by falling IC50 (oestrogen receptor (ER)), values first:

Row | IC50 (oestrogen receptor (ER)) [nM] | SMILES | Anti-oestrogenic activity in vivo in % at a dose of 1 mg/kg (rat) [1] [%] | inhibition in vivo at 0.3 mg/kg [1] [%]
15 | 32 | CN(CCCCCCC1=C(c2ccc(F)c(O)c2)CCCc2cc(O)c(F)cc21)CCCS(=O)(=O)CCC(F)(F)F [Example 126, 2-Fluoro-8-(4-fluoro-3-hydroxyphenyl)-9-[6-(methyl{3-[(3,3,3-trifluoropropyl)sulphonyl]propyl}amino)hexyl]-6,7-dihydro-5H-benzo[7]annulen-3-ol] | – | –
16 | 12 | O=S(=O)(CCCN(CCO)CCCCCCC1=C(c2ccc(F)c(O)c2)CCCc2c1ccc(O)c2F)CCCC(F)(F)C(F)(F)F [Example 115, 4-Fluoro-8-(4-fluoro-3-hydroxyphenyl)-9-{6-[(2-hydroxyethyl){3-[(4,4,5,5,5-pentafluoropentyl)sulphonyl]propyl}amino]hexyl}-6,7-dihydro-5H-benzo[7]annulen-3-ol] | – | –
17 | 11 | CN(CCCCCCC1=C(c2ccc(F)c(O)c2)CCCc2cc(O)c(F)cc21)CCCS(=O)(=O)CCC(F)(F)C(F)(F)F [Example 123, 2-Fluoro-8-(4-fluoro-3-hydroxyphenyl)-9-[6-(methyl{3-[(3,3,4,4,4-pentafluorobutyl)sulphonyl]propyl}amino)hexyl]-6,7-dihydro-5H-benzo[7]annulen-3-ol] | – | –
18 | 7 | CN(CCCCCCC1=C(c2ccc(F)c(O)c2)CCCc2c1ccc(O)c2F)CCCCS(=O)(=O)CCC(F)(F)F [Example 119, 4-Fluoro-8-(4-fluoro-3-hydroxyphenyl)-9-[6-(methyl{4-[(3,3,3-trifluoropropyl)sulphonyl]butyl}amino)hexyl]-6,7-dihydro-5H-benzo[7]annulen-3-ol] | – | –
19 | 7 | CN(CCCCCCC1=C(c2ccc(F)c(O)c2)CCCc2cc(O)c(F)cc21)CCCCS(=O)(=O)CCCC(F)(F)C(F)(F)F [Example 121, 2-Fluoro-8-(4-fluoro-3-hydroxyphenyl)-9-[6-(methyl{4-[(4,4,5,5,5-pentafluoropentyl)sulphonyl]butyl}amino)hexyl]-6,7-dihydro-5H-benzo[7]annulen-3-ol] | – | –
20 | 5 | CN(CCCCCCC1=C(c2cccc(S(C)(=O)=O)c2)CCCc2cc(O)ccc21)CCC[S+]([O-])CCCC(F)(F)C(F)(F)F (racemic) [Example 21, 8-(3-Mesylphenyl)-9-[6-(methyl{3-[(RS)-(4,4,5,5,5-pentafluoropentyl)sulphinyl]propyl}amino)hexyl]-6,7-dihydro-5H-benzo[7]annulen-3-ol] | – | 37
21 | 5 | CN(CCCCCCC1=C(c2ccc(F)c(O)c2)CCCc2cc(O)c(F)cc21)CCCCS(=O)(=O)CCCC(F)(F)F [Example 128, 2-Fluoro-8-(4-fluoro-3-hydroxyphenyl)-9-[6-(methyl{4-[(4,4,4-trifluorobutyl)sulphonyl]butyl}amino)hexyl]-6,7-dihydro-5H-benzo[7]annulen-3-ol] | – | –
